What follows are compounds tested on human platelet rich plasma (assay: Inhibition of human platelet aggregation, 96-well assay (ADP-induced, platelet rich plasma)). Details: 20 min, 96-well plate, human PRP, aggregation induced by ADP, AUC of absorbance over 20 minutes, 37° C.
Type: cell-based
Procedure: Alternatively to a binding assay which measures a compound's ability to bind to the P2Y12 receptor, the effect on cellular function was also determined. This ability of the compound was evaluated in two platelet aggregation assays: in 96-well plates and with the “Born”-method using single cuvettes.
Whole blood was collected from healthy volunteers using 20 ml syringes containing 2 ml of ACD-A Aqua-Citrat-Dextrose-A, Fresenius). The anticoagulated whole blood was transferred into 15 ml polypropylene conical tubes (10 ml per tube). The tubes were centrifuged for 15 minutes at 150×g at RT without using the centrifuge brake. This procedure leads to a pellet of cellular components and a supernatant of platelet rich plasma (PRP). The PRP layer was collected from each tube and pooled for each donor. To avoid carry over of cellular components following centrifugation, approximately 5 ml of PRP was left in the tube. The platelet concentration was determined using a Coulter Counter.
The 15 ml tubes containing the pellet of cellular components were centrifuged again for 10 minutes at 1940×g. This pelleted out most particulate blood constituents remaining, leaving a layer of Platelet Poor Plasma (PPP). The PPP was collected for each donor. The PRP layer, previously set aside, was diluted with PPP to a final concentration of approximately 3×E8 platelets/ml with the PPP.
The human platelet aggregation assay is performed in 96-well plates using a microtiter plate reader (SpectraMax Plus 384 with SoftMax Pro software from Molecular Devices).
In the plate 15 μl of test compound at 10× final concentration in NaCl is mixed with 120 μl fresh PRP and incubated for 5 minutes. Following that incubation period, 15 μl of 40 μM ADP is added to the reaction mix. This addition of ADP is sufficient to induce aggregation in the absence of an inhibitor. The plates are then transferred to the microplate reader and aggregation is measured over 20 minutes. The instrument settings include: Absorbance at 650 nm, run time 20 minutes with readings in 1-minute intervals and 50 seconds shaking between readings all performed at 37° C. Results of the assay are expressed as % inhibition, and are calculated using area under curve (AUC) of the absorbance over 20 minutes.

IC50 | Compound
60 nM | CCOC(=O)N1CCN(C(=O)[C@H](CCC(=O)O)NC(=O)c2cc(OCC(=O)N3CCC[C@H]3C(=O)NCC3CCC3)c3ccc(C)cc3n2)CC1 [Example 308, 4-{(S)-4-Carboxy-2-[(4-{2-[(S)-2-(cyclobutylmethyl-carbamoyl)-pyrrolidin-1-yl]-2-oxo-ethoxy}-7-methyl-quinoline-2-carbonyl)-amino]-butyryl}-piperazine-1-carboxylic acid ethyl ester]
73 nM | CCCCOC(=O)N1CCN(C(=O)[C@H](CCC(=O)O)NC(=O)c2cc(OCC(=O)N3CCC[C@H]3C#N)c3ccc(C)cc3n2)CC1 [Example 460, 4-[(S)-4-Carboxy-2-({4-[2-((S)-2-cyano-pyrrolidin-1-yl)-2-oxo-ethoxy]-7-methyl-quinoline-2-carbonyl}-amino)-butyryl]-piperazine-1-carboxylic acid butyl ester]
65 nM | CCCCOC(=O)N1CCN(C(=O)[C@H](CCC(=O)O)NC(=O)c2cc(OCC(=O)N3CC(O)C3)c3ccc(C)cc3n2)CC1 [Example 472, 4-[(S)-4-Carboxy-2-({4-[2-(3-hydroxy-azetidin-1-yl)-2-oxo-ethoxy]-7-methyl-quinoline-2-carbonyl}-amino)-butyryl]-piperazine-1-carboxylic acid butyl ester]

Further lines, the compound ahead of its results:

Compound | IC50
CCOC(=O)N1CCN(C(=O)[C@H](CCC(=O)O)NC(=O)c2cc(OCC(=O)N3CCC(O)CC3)c3ccc(C)cc3n2)CC1 [Example 10, 4-[(S)-4-Carboxy-2-({4-[2-(4-hydroxy-piperidin-1-yl)-2-oxo-ethoxy]-7-methyl-quinoline-2-carbonyl}-amino)-butyryl]-piperazine-1-carboxylic acid ethyl ester] | 180 nM
CCNC(=O)[C@@H]1CCCN1C(=O)COc1cc(C(=O)N[C@@H](CCC(=O)O)C(=O)N2CCN(C(=O)OCC)CC2)nc2cccc(F)c12 [Example 179, 4-[(S)-4-Carboxy-2-({4-[2-((S)-2-ethylcarbamoyl-pyrrolidin-1-yl)-2-oxo-ethoxy]-5-fluoro-quinoline-2-carbonyl}-amino)-butyryl]-piperazine-1-carboxylic acid ethyl ester] | 30 nM

The compounds below were run against human P2Y12 receptor (Homo sapiens (Human), UniProt Q9H244) (assay: Human P2Y12 recombinant cell membrane binding assay with 33P 2MeS-ADP). Details: CHO cell membranes with recombinant human P2Y12; competition against 33P 2MeS-ADP.
Procedure: The ability of the compounds of the formula I to inhibit the P2Y12 receptor can be assessed by determining the concentration of the compound of the formula I that binds to the human P2Y12 Recombinant Cell Membrane Binding Assay with 33P 2MeS-ADP.
Human P2Y12 Recombinant Cell Membrane Binding Assay
The ability of a test compound to bind to the P2Y12 receptor was evaluated in a recombinant cell membrane binding assay. In this competitive binding assay, the test compound competed against a radiolabeled agonist for binding to the P2Y12 receptor, expressed on the cell membrane. Inhibition of binding of the labeled material was measured and correlated to the amount and potency of the test compound.
As source of P2Y12, a membrane preparation was prepared from Chinese Hamster Ovary (CHO) cells with recombinant expression of the human P2Y12 receptor according to standard procedures.
Next, wells were washed four times with 400 μl/well of stop buffer on a plate vacuum. The plate was disassembled and allowed to air dry overnight with the filter side up over night. […] The top of the filter plate was sealed with plastic plate covers. The sealed filter plate were incubated 2 hours at RT. A Microbeta Scintillation Counter was used to measure counts.
Compounds were diluted as 10 mM DMSO stocks and tested in a four-point, five-fold dilution series run in triplicate beginning at 10 μM, final concentration. Data were analyzed using a four-parameter curve fit with a fixed minimum and maximum experimentally defined as the average positive and negative controls on each plate.

human P2Y12 receptor, sequence (Q9H244 whole entry): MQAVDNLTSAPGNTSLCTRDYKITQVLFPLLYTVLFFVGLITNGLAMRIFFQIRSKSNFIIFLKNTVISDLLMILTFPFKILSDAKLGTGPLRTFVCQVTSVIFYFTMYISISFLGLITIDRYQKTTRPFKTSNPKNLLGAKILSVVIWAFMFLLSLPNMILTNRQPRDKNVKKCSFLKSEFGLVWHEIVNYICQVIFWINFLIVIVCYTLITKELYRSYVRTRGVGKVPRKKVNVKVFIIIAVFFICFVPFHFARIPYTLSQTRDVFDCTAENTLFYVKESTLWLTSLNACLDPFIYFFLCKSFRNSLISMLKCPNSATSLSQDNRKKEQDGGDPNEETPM

IC50 | Compound
102 nM | CCOC(=O)N1CCN(C(=O)[C@H](CCC(=O)O)NC(=O)c2cc(OCC(=O)N3CCCC3c3ccccc3)c3ccccc3n2)CC1 (stereo partly drawn) [Example 334, 4-[(S)-4-Carboxy-2-({4-[2-oxo-2-(2-phenyl-pyrrolidin-1-yl)-ethoxy]-quinoline-2-carbonyl}-amino)-butyryl]-piperazine-1-carboxylic acid ethyl ester]
33 nM | CCCCOC(=O)N1CC(NC(=O)[C@H](CCC(=O)O)NC(=O)c2cc(OCC(=O)N3CCC[C@H]3C(=O)NC3CCC3)c3ccccc3n2)C1 [Example 424, 3-[(S)-4-Carboxy-2-({4-[2-((S)-2-cyclobutylcarbamoyl-pyrrolidin-1-yl)-2-oxo-ethoxy]-quinoline-2-carbonyl}-amino)-butyrylamino]-azetidine-1-carboxylic acid butyl ester]
21 nM | CCCCOC(=O)N1CCN(C(=O)[C@H](CCC(=O)O)NC(=O)c2cc(OCC(=O)N3CCC[C@H]3C(=O)NC3CCC3)c3ccc(C)cc3c2)CC1 [Example 511, 4-[(S)-4-Carboxy-2-({4-[2-((S)-2-cyclobutylcarbamoyl-pyrrolidin-1-yl)-2-oxo-ethoxy]-7-methyl-naphthalene-2-carbonyl}-amino)-butyryl]-piperazine-1-carboxylic acid butyl ester]
5 nM | CCCCOC(=O)N1CCN(C(=O)CNC(=O)c2cc(OCC(=O)N3CCC[C@H]3C(=O)NC3CCC3)c3ccccc3n2)CC1 [Example 673, 4-[2-({4-[2-((S)-2-Cyclobutylcarbamoyl-pyrrolidin-1-yl)-2-oxo-ethoxy]-quinoline-2-carbonyl}-amino)-acetyl]-piperazine-1-carboxylic acid butyl ester]
3 nM | Cc1ccc2c(OCC(=O)N3CCC[C@H]3C(=O)NC3CCC3)cc(C(=O)NCC(=O)N3CCN(C(=O)OCCC(F)(F)F)CC3)nc2c1 [Example 679, 4-[2-({4-[2-((S)-2-Cyclobutylcarbamoyl-pyrrolidin-1-yl)-2-oxo-ethoxy]-7-methyl-quinoline-2-carbonyl}-amino)-acetyl]-piperazine-1-carboxylic acid 3,3,3-trifluoro-propyl ester]

The remaining lines, values behind:

Compound | IC50
CCOC(=O)N1CCN(C(=O)[C@H](CCC(=O)OCC2CCCC2)NC(=O)c2cc(OCC(=O)N3CCC[C@H]3C(=O)NC3CCC3)c3ccc(C)cc3n2)CC1 [Example 246, 4-[(S)-2-({4-[2-((S)-2-Cyclobutylcarbamoyl-pyrrolidin-1-yl)-2-oxo-ethoxy]-7-methyl-quinoline-2-carbonyl}-amino)-4-cyclopentylmethoxycarbonyl-butyryl]-piperazine-1-carboxylic acid ethyl ester] | 71 nM
CCOC(=O)N1CCN(C(=O)[C@H](CC(=O)O)NC(=O)c2cc(OCC(=O)N3CCC[C@H]3C(=O)NC3CCC3)c3cc(F)c(C)cc3n2)CC1 [Example 270, 4-[(S)-3-Carboxy-2-({4-[2-((S)-2-cyclobutylcarbamoyl-pyrrolidin-1-yl)-2-oxo-ethoxy]-6-fluoro-7-methyl-quinoline-2-carbonyl}-amino)-propionyl]-piperazine-1-carboxylic acid ethyl ester] | 9 nM
CCOC(=O)N1CCN(C(=O)[C@H](CCC(=O)O)NC(=O)c2cc(O[C@H](C)C(=O)N3CCC[C@H]3C(=O)N3CCCCC3)c3ccc(C)cc3n2)CC1 [Example 296, 4-{(S)-4-Carboxy-2-[(7-methyl-4-{(R)-1-methyl-2-oxo-2-[(S)-2-(piperidine-1-carbonyl)-pyrrolidin-1-yl]-ethoxy}-quinoline-2-carbonyl)-amino]-butyryl}-piperazine-1-carboxylic acid ethyl ester] | 12 nM
CCOC(=O)N1CCN(C(=O)[C@H](CCC(=O)O)NC(=O)c2cc(O[C@H](C)C(=O)N3CCC[C@H]3C(=O)NCC3CC3)c3ccc(C)cc3n2)CC1 [Example 300, 4-{(S)-4-Carboxy-2-[(4-{(R)-2-[(S)-2-(cyclopropylmethyl-carbamoyl)-pyrrolidin-1-yl]-1-methyl-2-oxo-ethoxy}-7-methyl-quinoline-2-carbonyl)-amino]-butyryl}-piperazine-1-carboxylic acid ethyl ester] | 5 nM

Source: US8669266B2, “Quinoline-carboxamide derivatives as P2Y12 antagonists” (Sanofi, priority 2007, dated 2014)
